Patent US6503932B2, “Fungicidal mixtures based on amide compounds” (BASF Aktiengesellschaft, priority 2000, dated 2003)

Experiments:
[1] = tested on: mildew of wheat (Blumeria graminis forma specialis tritici); assay: Activity against mildew of wheat (protective, potted wheat seedlings); format: in vivo; conditions: wheat 'Kanzler', 7 days
Experimental: (§1) The active compounds, separately or together, were formulated as a 10% strength emulsion in a mixture of 70% by weight of cyclohexanone, 20% by weight of Nekanil® LN (Lutensol® AP6, wetting agent having emulsifying and dispersing action based on ethoxylated alkylphenols) and 10% by weight of Emulphor® EL (Emulan® EL, emulsifier based on ethoxylated fatty alcohols) and correspondingly diluted with water to the desired concentration.
(§2) Evaluation was carried out by determining the infected leaf areas in percent. These percentages were converted into efficacies. The efficacy (W) was calculated as follows using Abbot's formula: […]
The expected efficacies of the mixtures of the active compounds were determined using Colby's formula [R. S. Colby, Weeds 15, 20-22 (1967)] and compared with the observed efficacies. […]
Leaves of potted wheat seedlings of the culivar “Kanzler” were sprayed to run off point with an aqueous preparation of active compound which had been prepared from a stock solution made of 10% of active compound, 85% of cyclohexanone and 5% of emulsifier and, 24 hours after the spray coating had dried on, dusted with spores of mildew of wheat (Blumeria graminis forma specialis tritici). […] After 7 days, the extent of the mildew development was determined visually in % infection of the total leaf area. […]

Puccinia recondita = assay: Curative activity against Puccinia recondita on wheat (wheat leaf rust); format: in vivo; conditions: wheat 'Kanzler', 7 days
Experimental: as §1, §2
α corresponds to the fungal infection of the treated plants in % and β corresponds to the fungal infection of the untreated (control) plants in % An efficacy of 0 means that the infection level of the treated plants corresponds to that of the untreated control plants; an efficacy of 100 means that the treated plants were not infected.
The expected efficacies of the mixtures of the active compounds were determined using Colby's formula [R. S. Colby, Weeds 15, 20-22 (1967)] and compared with the observed efficacies.
Colby's formula: E=x+y−x·y/100
E expected efficacy, expressed in % of the untreated control, when using the mixture of the active compounds A and B at the concentrations a and b x efficacy, expressed in % of the untreated control, when using active compound A at a concentration of a y efficacy, expressed in % of the untreated control, when using active compound B at a concentration of b.
Leaves of potted wheat seedlings of the cultivar “Kanzler” were dusted with spores of leaf rust (Puccinia recondita). Thereafter, the pots were kept for 24 hours in a chamber of high atmospheric humidity (90 to 95%) and at 20-22° C. During this time, the spores germinated and the germinal tubes penetrated into the leaf tissue. […] Thereafter, the extent of the rust fungus development on the leaves was determined. […]

Substance: spiroxamine [spiroxamine (II)]
- Efficacy in % of the untreated control ([1]; 1.5 ppm in the spray liquor): 0%
- Efficacy in % of the untreated control ([1]; 3 ppm in the spray liquor): 20%
- Efficacy in % of the untreated control (Puccinia recondita; 1.5 ppm in the spray liquor): 0%
- Efficacy in % of the untreated control (Puccinia recondita; 3 ppm in the spray liquor): 0%
- Efficacy in % of the untreated control (Puccinia recondita; 12.5 ppm in the spray liquor): 30%
